For orientation: IC50 means the midpoint of a concentration-inhibition curve.

Each structure is given as a SMILES string. Some results are limits rather than exact numbers.

The first assay relates to MM.1S cells. Nature of the assay: In vitro cytotoxic potency in MM.1S cell viability assay (CellTiter-Glo). Format: cell-based, human. The settings on record: 72 h, CellTiter-Glo 2.0; read-out: MM.1S IC50. As to the method:
Methods: MM.1S Cells were cultivated in RPMI medium 1640 (IX) supplemented with 10 μg/μL penicillin/streptomycin, 10% heat inactivated FBS, 0.1 mM Sodium Pyruvate, 1×MEM NEAA (ThermoFisher) and 1 mM HEPES. Cells were grown to reach log phase before being exposed to the test compounds.
Test compounds (Example compounds 1 to 36, 38 to 41 and 45 to 48) and comparative compounds (bendamustine, busulfan, melphalan, chlorambucil and 4-hydroperoxy cyclophosphamide) were dissolved in 100% DMSO and added to a 384 assay plate. Additional DMSO was added to maintain the same final DMSO concentration (0.2%) in all wells. 25 μL cell suspension with a concentration of 100000 cells/mL was added to each well. The cells were cultured in a CO2 incubator at 37° C. for 72 h. Plates were equilibrated to room temperature for 30 minutes before adding 20 μL CellTiter-Glo® 2.0 (Promega) reagent to all wells. The plate was then allowed to stabilize for 20 minutes before recording the luminescence (emission filter 700 nm) in an Envision plate reader.
All cells were cultivated in RPMI medium 1640 (IX). All media was supplemented with 10 μg/μl penicillin/streptomycin, 10% heat inactivated FBS, 0.1 mM Sodium Pyruvate, 1×MEM NEAA (ThermoFisher) and 1 mM HEPES. The DERL-2 cells had higher FBS (20%) and 40 ng/mL IL-2 was added. hPBMCs were thawed and allowed to acclimatise overnight and then stimulated with 10 μg/mL PHA-M and 40 ng/mL IL-2 for 4 hours before being exposed to test compounds. All cells, except for hPBMCs, were grown to reach log phase before being exposed to the test compounds.
Test compounds were dissolved in 100% DMSO and added to a 384 assay plate. Additional DMSO was added to maintain the same final DMSO concentration (0.2%) in all wells. 25 μL cell suspension with a concentration of 100000 cells/mL was added to each well. The cells were cultured in a CO2 incubator at 37° C. for 72 h. Plates were equilibrated to room temperature for 30 minutes before adding 20 μL CellTiter-Glo® 2.0 (Promega) reagent to all wells. The plate was then allowed to stabilize for 20 minutes before recording the luminescence (Em filter 700 nm) in an Envision plate reader.
(ATP-based viability assays read luminescence as a measure of living cells.)
`O=P1(N(CCCl)CCCl)NC(OO)CCO1` (stereo not shown) [4-hydroperoxy cyclophosphamide, reference compound]: the IC50 was determined as 7300 nM.
Still for that read-out and setting: the figure for `COCC(C)OC(=O)[C@H](CC(C)C)NC(=O)[C@@H](N)CCc1nc2cc(N(CCCl)CCCl)ccc2n1C` (stereo partly drawn) [Example 29, (2-Methoxy-1-methyl-ethyl) (2S)-2-[[(2S)-2-amino-4-[5-[bis(2-chloroethyl)amino]-1-methyl-benzimidazol-2-yl]butanoyl]amino]-4-methyl-pentanoate] is 1.4 nM.

Staying with this assay, now noted: Homo sapiens, MM1.S, 72 h, read-out: MM.1S IC50.
As to `Cn1c(CC[C@H](N)C(=O)N[C@@H](Cc2ccc(F)cc2)C(=O)O)nc2cc(N(CCCl)CCCl)ccc21` [Example 39, (2S)-2-[[(2S)-2-Amino-4-[5-[bis(2-chloroethyl)amino]-1-methyl-benzimidazol-2-yl]butanoyl]amino]-3-(4-fluorophenyl)propanoic acid], the IC50 is greater than 2000 nM.
The same measure, in the same setting: to `CCOC(=O)[C@H](CCc1nc2cc(N(CCCl)CCCl)ccc2n1C)NC(=O)[C@@H](CC(C)C)NC(=O)[C@@H](N)Cc1ccc(F)cc1` [Example 21, Ethyl (2S)-2-[[(2R)-2-[[(2S)-2-amino-3-(4-fluorophenyl)propanoyl]amino]-4-methyl-pentanoyl]amino]-4-[5-[bis(2-chloroethyl)amino]-1-methyl-benzimidazol-2-yl]butanoate] belongs 26.6 nM.
Same read-out and setting: to `CCOC(=O)[C@@H](CC(C)C)NC(=O)[C@@H](N)CCc1nc2cc(N(CCCl)CCCl)ccc2n1C` [Example 45, Ethyl (2R)-2-[[(2S)-2-amino-4-[5-[bis(2-chloroethyl)amino]-1-methyl-benzimidazol-2-yl]butanoyl]amino]-4-methyl-pentanoate] belongs 512 nM.
On the same count and under the same terms, the figure for `CCOC(=O)[C@H](CC(C)C)NC(=O)[C@H](CCc1nc2cc(N(CCCl)CCCl)ccc2n1C)NC` [Example 32, Ethyl (2S)-2-[[(2S)-4-[5-[bis(2-chloroethyl)amino]-1-methyl-benzimidazol-2-yl]-2-(methylamino)butanoyl]amino]-4-methyl-pentanoate] is 14.3 nM.
For `CCOC(=O)[C@H](Cc1ccc(F)cc1)NC(=O)[C@H](CC(C)C)NC(=O)[C@@H](N)CCc1nc2cc(N(CCCl)CCCl)ccc2n1C` [Example 22, Ethyl (2S)-2-[[(2S)-2-[[(2S)-2-amino-4-[5-[bis(2-chloroethyl)amino]-1-methyl-benzimidazol-2-yl]butanoyl]amino]-4-methyl-pentanoyl]amino]-3-(4-fluorophenyl)propanoate], the IC50 was 31.3 nM.
Same read-out and setting: the figure for `CCOC(=O)[C@H](Cc1ccc(F)cc1)NC(=O)[C@@H](N)Cc1nc2cc(N(CCCl)CCCl)ccc2n1C` [Example 5, Ethyl (2S)-2-[[(2S)-2-amino-3-[5-[bis(2-chloroethyl)amino]-1-methyl-benzimidazol-2-yl]propanoyl]amino]-3-(4-fluorophenyl)propanoate] is 22.6 nM; for `CCOC(=O)[C@H](Cc1nc2cc(N(CCCl)CCCl)ccc2n1C)NC(=O)[C@@H](N)C(C)C` [Example 12, Ethyl (2S)-2-[[(2S)-2-amino-3-methyl-butanoyl]amino]-3-[5-[bis(2-chloroethyl)amino]-1-methyl-benzimidazol-2-yl]propanoate] it is 12.5 nM.
Still for that read-out and setting: the figure for `CCOC(=O)[C@H](CC(C)C)NC(=O)[C@H](Cc1nc2cc(N(CCCl)CCCl)ccc2n1C)NC(C)=O` [Example 35, Ethyl (2S)-2-[[(2S)-2-acetamido-3-[5-[bis(2-chloroethyl)amino]-1-methyl-benzimidazol-2-yl]propanoyl]amino]-4-methyl-pentanoate] is 86.7 nM; for `CC(C)C[C@H](NC(=O)[C@@H](N)CCc1nc2cc(N(CCCl)CCCl)ccc2n1C)C(=O)OC(C)C` [Example 26, Isopropyl (2S)-2-[[(2S)-2-amino-4-[5-[bis(2-chloroethyl)amino]-1-methyl-benzimidazol-2-yl]butanoyl]amino]-4-methyl-pentanoate] it is 6.8 nM; for `CCOC(=O)[C@H](Cc1ccc(F)cc1)NC(=O)[C@H](Cc1nc2cc(N(CCCl)CCCl)ccc2n1C)NC(C)=O` [Example 36, Ethyl (2S)-2-[[(2S)-2-acetamido-3-[5-[bis(2-chloroethyl)amino]-1-methyl-benzimidazol-2-yl]propanoyl]amino]-3-(4-fluorophenyl)propanoate] it is 57.5 nM.
Same read-out and setting: the figure for `CC(C)C[C@H](NC(=O)[C@@H](N)CCc1nc2cc(N(CCCl)CCCl)ccc2n1C)C(=O)OCCN1CCOCC1` [Example 24, 2-Morpholinoethyl (2S)-2-[[(2S)-2-amino-4-[5-[bis(2-chloroethyl)amino]-1-methyl-benzimidazol-2-yl]butanoyl]amino]-4-methyl-pentanoate] is 156 nM; for `CCOC(=O)[C@H](CCc1nc2cc(N(CCCl)CCCl)ccc2n1C)NC(=O)[C@H](CC(C)C)NC(=O)[C@@H](N)Cc1ccc(F)cc1` [Example 16, Ethyl (2S)-2-[[(2S)-2-[[(2S)-2-amino-3-(4-fluorophenyl)propanoyl]amino]-4-methyl-pentanoyl]amino]-4-[5-[bis(2-chloroethyl)amino]-1-methyl-benzimidazol-2-yl]butanoate] it is 25 nM.
For the compound `CN[C@@H](CCc1nc2cc(N(CCCl)CCCl)ccc2n1C)C(=O)N[C@@H](CC(C)C)C(=O)O` [Example 33, (2S)-2-[[(2S)-4-[5-[bis(2-chloroethyl)amino]-1-methyl-benzimidazol-2-yl]-2-(methylamino)butanoyl]amino]-4-methyl-pentanoic acid], the IC50 stood at 79900 nM.
With `CCOC(=O)[C@H](Cc1nc2cc(N(CCCl)CCCl)ccc2n1C)NC(=O)[C@@H](N)Cc1ccc(F)cc1` [Example 11, Ethyl (2S)-2-[[(2S)-2-amino-3-(4-fluorophenyl)propanoyl]amino]-3-[5-[bis(2-chloroethyl)amino]-1-methyl-benzimidazol-2-yl]propanoate], the IC50 came to 14.7 nM.
Same read-out and setting: to `N[C@@H](CCc1nc2cc(N(CCCl)CCCl)ccc2n1-c1ccccc1)C(=O)O` [Example 41, (2S)-2-Amino-4-[5-[bis(2-chloroethyl)amino]-1-phenyl-benzimidazol-2-yl]butanoic acid] belongs 16500 nM.
Same read-out and setting: to `CC(C)C[C@H](NC(=O)[C@@H](N)CCc1nc2cc(N(CCCl)CCCl)ccc2n1-c1ccccc1)C(=O)O` [Example 40, (2S)-2-[[(2S)-2-Amino-4-[5-[bis(2-chloroethyl)amino]-1-phenyl-benzimidazol-2-yl]butanoyl]amino]-4-methyl-pentanoic acid] belongs 7180 nM; to `CCOC(=O)[C@@H](NC(=O)[C@@H](N)Cc1nc2cc(N(CCCl)CCCl)ccc2n1C)C(C)C` [Example 6, Ethyl (2S)-2-[[(2S)-2-amino-3-[5-[bis(2-chloroethyl)amino]-1-methyl-benzimidazol-2-yl]propanoyl]amino]-3-methyl-butanoate], 98.7 nM; to `CC(C)C[C@H](NC(=O)[C@@H](N)CCc1nc2cc(N(CCCl)CCCl)ccc2n1C)C(=O)OCCOC(C)C` [Example 25, 2-Isopropoxyethyl (2S)-2-[[(2S)-2-amino-4-[5-[bis(2-chloroethyl)amino]-1-methyl-benzimidazol-2-yl]butanoyl]amino]-4-methyl-pentanoate], 18.5 nM.
Same read-out and setting: the figure for `CCOC(=O)[C@@H](CC(C)C)NC(=O)[C@H](N)CCc1nc2cc(N(CCCl)CCCl)ccc2n1C` [Example 47, Ethyl (2R)-2-[[(2R)-2-amino-4-[5-[bis(2-chloroethyl)amino]-1-methyl-benzimidazol-2-yl]butanoyl]amino]-4-methyl-pentanoate] is 1710 nM; for `CCOC(=O)[C@H](CC(C)C)NC(=O)[C@H](CC(C)C)NC(=O)[C@@H](N)CCc1nc2cc(N(CCCl)CCCl)ccc2n1C` [Example 23, Ethyl (2S)-2-[[(2S)-2-[[(2S)-2-amino-4-[5-[bis(2-chloroethyl)amino]-1-methyl-benzimidazol-2-yl]butanoyl]amino]-4-methyl-pentanoyl]amino]-4-methyl-pentanoate] it is 41.8 nM; for `CC(C)C[C@H](NC(=O)[C@@H](N)Cc1nc2cc(N(CCCl)CCCl)ccc2n1C)C(=O)OC(C)C` [Example 15, Isopropyl (2S)-2-[[(2S)-2-amino-3-[5-[bis(2-chloroethyl)amino]-1-methyl-benzimidazol-2-yl]propanoyl]amino]-4-methyl-pentanoate] it is 9.1 nM.
For the compound `Cn1c(C[C@H](N)C(=O)O)nc2cc(N(CCCl)CCCl)ccc21` [Example 17, (2S)-2-amino-3-[5-[bis(2-chloroethyl)amino]-1-methyl-benzimidazol-2-yl]propanoic acid], the IC50 turned out to be 40000 nM.

The same assay, now with this note: Homo sapiens, MM1.S; 72 h, CellTiter-Glo 2.0; read-out: MM.1S IC50.
For the compound `CS(=O)(=O)OCCCCOS(C)(=O)=O` [Busulfan, busulfan, reference compound], the IC50 stood at 180000 nM.
